{"source": "patent US6461844B1", "about": "“Liver GalNAc-1-phosphate kinase” (The Board of Trustees of the University of Arkansas, priority 1995, dated 2002)", "key": {"GalNAc kinase [1]": {"target": "T1, GalNAc kinase (Sus scrofa, UniProt A0A287BB25)", "T1 construct": "This enzyme was purified about 1400-fold from the cytosolic fraction of pig kidney; from tissue; host or cells: pig kidney cytosol", "assay": "Phosphate donor specificity of GalNAc kinase", "format": "biochemical, pig", "parameters": "Radioactivity in Sugar-P: unit not given beside the values"}, "GalNAc kinase [2]": {"target": "T1, GalNAc kinase", "assay": "Azido-ATP[32P] photoaffinity labeling of the purified kinase", "format": "binding, pig", "details": "unlabeled nucleotide added", "procedure": "The proteins were transferred to nitrocellulose membranes and exposed to film to detect the radioactive bands.\nThe purified enzyme fraction was incubated with azido-ATP[^32P], exposed to UV light and run on SDS gels. […] The product of the reaction was characterized as GalNAc-α-1-P by susceptibility of the phosphate group to mild acid hydrolysis, by its mobility on TLC and Dionex chromatography, and by high resolution NMR.\nThe GalNAc kinase was purified from the cytosolic fraction of pig kidney using the purification scheme described in the section above and outlined in Table I. Using this procedure, the kinase was purified about 1400-fold from crude extracts with a recovery of about 24%. […] In addition, the amount of label in that band increased with increasing amounts of the probe, and the labeling was inhibited by adding unlabeled ATP, but not by other nucleotides. […] Moreover, gel filtration of the native enzyme on Sephadex G-100 gave an activity peak in the region where proteins of about 48-51 kDa elute. Thus the native protein is probably a monomer of about 50 kDa molecular weight. Sufficient amounts of this protein band can be prepared to determine the amino acid sequence and to prepare antibodies."}, "GalNAc kinase [3]": {"target": "T1, GalNAc kinase", "assay": "Effect of substrate concentration on GalNAc kinase activity (Km)", "format": "biochemical, pig", "details": "300 μM GalNAc; Lineweaver-Burk; read-out: Km for ATP", "procedure": "(§1) In FIG. 3A, various amounts of GalNAc were added to otherwise standard incubation mixtures containing 300 μM ATP, and the amount of GalNAc phosphorylated by the purified enzyme was determined. In FIG. 3B, the data was replotted by the method of Lineweaver and Burk. In FIG. 3C, various amounts of the other substrate, ATP, were added to otherwise standard incubation mixtures containing saturating (300 μM) levels of GalNAc and the amount of phosphorylation of GalNAc by the purified enzyme was determined.\n(§2) GalNAc kinase activity was assayed in incubation mixtures of 200 μl containing the following components: [^3H]GalNAc (10,000 cpm), 1 μmole of ATP, 2 μmoles of MgCl2, 20 μmoles of Tris-HCl buffer, pH 7.5, and various amounts of the enzyme preparations to be assayed. Following an incubation for the appropriate time, the reaction was stopped by heating at 100° C. for 5 min., and the incubation mixture was applied to a column of DE-52. The column was washed with at least 5 column volumes of 10 mM (NH4)HCO3 buffer to remove unbound material, and then GalNAc phosphate was eluted with 500 mM ammonium bicarbonate. Aliquots of the wash and eluent were removed and assayed for their radioactive content by scintillation counting."}, "[4]": {"system": "UDP-GlcNAc pyrophosphorylase", "details": "partially purified enzyme; cited from earlier work"}, "[5]": {"system": "UDP-GlcNAc pyrophosphorylases", "details": "UDP-GlcNAc = 100%; cited from earlier work"}, "[6]": {"assay": "Acid lability of the phosphate group of sugar phosphates", "format": "physicochemical", "details": "0.05 N HCl, 100° C., up to 50 minutes", "procedure": "A large amount of the radioactive product formed by the GalNAc kinase was isolated and purified on a DE-52 column, and this product was suspended in 0.05 N HCl and placed in a hot water bath at about 95° C. At various times, aliquots of the reaction mixture were removed, cooled, neutralized and passed through a column of DE-52 to determine whether the ^3H-GalNAc had lost its charge. Standards of Glc-6-P, Glc-1-P, GalNAc-1-P and GlcNAc-6-P were also subjected to the same hydrolysis conditions and were tested for their susceptibility to loss of phosphate.\nThe radioactive material was examined for purity and characterization by TLC chromatography on cellulose plates in 70% ethanol: 1 M ammonium acetate, pH 7.5 (7:3), or in 70% ethanol: 1 M ammonium acetate, pH 3.5 (7:3). The product was subjected to HPLC on the Dionex apparatus, using a column to separate various sugar phosphates from each other. Sugar-1-phosphates were distinguished from sugar-6-phosphates by their susceptibility to acid hydrolysis in 0.05 N HCl at 100° C. Sugar-1-phosphates are rapidly hydrolyzed whereas sugar-6-phosphates are stable. […]\nThe radioactive product from the ion exchange columns was suspended in 0.05 N HCl and heated at 100° C. for various periods of time. […] The amount of radioactivity that emerged in the wash was taken as a measure of removal of the phosphate group. […]"}, "[7]": {"substrate": "CC(=O)N[C@H]1C(O)O[C@H](CO)[C@H](O)[C@@H]1O", "assay": "Effect of substrate concentration on GalNAc kinase activity (Km)", "format": "biochemical, pig", "details": "other: 300 μM ATP; Lineweaver-Burk; pH 7.5", "procedure": "as §1, §2"}}, "data": [{"molecule": "Nc1ncnc2c1ncn2[C@@H]1O[C@H](COP(=O)(O)OP(=O)(O)OP(=O)(O)O)[C@@H](O)[C@H]1O", "note": "[ATP]", "values": [{"measurement": "activity as phosphate donor", "setting": "GalNAc kinase [1]", "result": "by far the best phosphate donor"}, {"measurement": "Radioactivity in Sugar-P", "setting": "GalNAc kinase [1]; nucleotide added at 5 mM", "result": "10,195"}, {"measurement": "Specific Activity", "setting": "GalNAc kinase [1]; nucleotide added at 5 mM", "result": 160.0, "unit": "nmol/mg"}, {"measurement": "effect on labeling of the 50 kDa band by ATP[32P] photoaffinity probe", "setting": "GalNAc kinase [2]", "result": "inhibited"}, {"measurement": "Km", "setting": "GalNAc kinase [3]", "result": 100, "unit": "µM"}]}, {"molecule": "CC(=O)N[C@H]1[C@@H](OP(=O)(O)OP(=O)(O)OC[C@H]2O[C@@H](n3ccc(=O)[nH]c3=O)[C@H](O)[C@@H]2O)O[C@H](CO)[C@H](O)[C@@H]1O", "note": "[UDP-GalNAc]", "values": [{"measurement": "rate of pyrophosphorolysis relative to UDP-GlcNAc", "setting": "[4]", "result": "about 2.8%"}, {"measurement": "activity towards substrate", "setting": "[5]", "result": 3, "unit": "%"}]}, {"molecule": "CC(=O)N[C@@H]1C(O)[C@H](O)[C@@H](COP(=O)(O)O)O[C@H]1O", "note": "(stereo partly drawn) [GlcNAc-6-phosphate]", "values": [{"measurement": "stability to acid hydrolysis", "setting": "[6]", "result": "quite stable"}]}, {"molecule": "GalNAc kinase (Sus scrofa) (protein, This enzyme was purified about 1400-fold from the cytosolic fraction of pig kidney; from tissue; host or cells: pig kidney cytosol) MATEGPPVHQVQVAEHPRLLKLKEIFNSKFGSIPKFYVRAPGRVNIIGEHIDYCGYSVLPMAVEQDMLIAVEPVKTHTLQLANTNPLYPDFNTSADNIQIDKTKPLWHNYFLCGFKGIQEHFGLSNLIGMNCLVDGNIPPSSGLSSSSALVCCAGLVTLTVLGMNLSKVELAEICAKSERYIGTEGGGMDQSISFLAEEGTAKLIEFSPLRATDVKLPSGAVFVIANSCVEMNKAATSHFNIRVMECRLAAKLLAKHRSLQWDKVLRLEEVQAKLGVSLEEMLLITEDTLHPEPYSPEEVCQCLGISLQELKTQILSPNTQDVLTFKLYQRAKHVYSEAARVLQFKKICEEAPDDMVQLLGELMNQSHVSCRDMYECSCPELDQLVDICRKFGAQGSRLTGAGWGGCTVSIVLADKLPSFLANVHEAYYQKSGRSLAPEKQSLFATKPGGGALVFLEA", "values": [{"measurement": "Km", "setting": "[7]", "result": 50, "unit": "µM"}]}]}
